From PubChem BioAssay AID212 (DTP/NCI, 2004)
Several values for one entry are separate records, joined by “and”; a condition that tells them apart may be missing. Identical values can stand only once. Inconclusive results are not listed.

Test system: BDF1 mice, colon carcinoma 38 sc, T/C %
Assay: NCI In Vivo Anticancer Drug Screen. Data for tumor model Colon Carcinoma 38 (subcutaneous) in B6D2F1 (BDF1) mice
Method in brief: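 Transplantable tumor in mice; compound-treated vs vehicle-dosed controls. Measured survival or tumor size; value = T ÷ C.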

[1] = endpoint: median tumor weight (est.), dose: 12.5 mg/kg/injection, schedule: Q07DX002 (ip), vehicle: saline with Tween-80, higher = larger tumour
[2] = endpoint: median tumor weight (est.), dose: 12.5 mg/kg/injection, schedule: Q07DX002 (ip), vehicle: saline, higher = larger tumour
[3] = endpoint: median tumor weight (est.), dose: 25.0 mg/kg/injection, schedule: Q07DX002 (ip), vehicle: saline, higher = larger tumour
[4] = endpoint: median tumor weight (est.), dose: 50.0 mg/kg/injection, schedule: Q07DX002 (ip), vehicle: saline with Tween-80, higher = larger tumour
[5] = endpoint: median tumor weight (est.), dose: 100.0 mg/kg/injection, schedule: Q07DX002 (ip), vehicle: saline with Tween-80, higher = larger tumour
[6] = endpoint: median tumor weight (est.), dose: 100.0 mg/kg/injection, schedule: Q07DX002 (ip), vehicle: saline, higher = larger tumour
[7] = endpoint: median tumor weight (est.), dose: 200.0 mg/kg/injection, schedule: Q07DX002 (ip), vehicle: saline with Tween-80, higher = larger tumour
[8] = endpoint: median tumor weight (est.), dose: 400.0 mg/kg/injection, schedule: Q07DX002 (ip), vehicle: Klucel (hydroxypropylcellulose) (HPC), higher = larger tumour

CCN1/C(=C/C=C/C=C\C=C\c2sc3ccc4ccccc4c3[n+]2CC)Sc2ccc3ccccc3c21
T/C (endpoint: median tumor weight (est.), dose: 2.5 mg/kg/injection, schedule: Q07DX002 (ip), vehicle: saline with Tween-80, higher = larger tumour): 105 % of control
T/C (endpoint: median tumor weight (est.), dose: 5.0 mg/kg/injection, schedule: Q07DX002 (ip), vehicle: saline with Tween-80, higher = larger tumour): 89 % of control
T/C (endpoint: median tumor weight (est.), dose: 10.0 mg/kg/injection, schedule: Q07DX002 (ip), vehicle: saline with Tween-80, higher = larger tumour): 69 % of control
T/C (endpoint: median tumor weight (est.), dose: 20.0 mg/kg/injection, schedule: Q07DX002 (ip), vehicle: saline with Tween-80, higher = larger tumour): 76 % of control

CC(C)=CCNc1ncnc2c1ncn2C1OC(CO)C(O)C1O (stereo unspecified)
T/C [1]: 61 % of control
T/C [2]: 102 % of control
T/C [3]: 89 % of control
T/C [4]: 96 % of control
T/C [5]: 44 % of control
T/C [6]: 97 % of control
T/C [7]: 75 % of control

O=c1[nH]cnc2n[nH]nc12
T/C (endpoint: median tumor weight (est.), dose: 12.5 mg/kg/injection, schedule: Q07DX002 (ip), vehicle: Klucel (hydroxypropylcellulose) (HPC), higher = larger tumour): 122 % of control
T/C (endpoint: median tumor weight (est.), dose: 25.0 mg/kg/injection, schedule: Q07DX002 (ip), vehicle: Klucel (hydroxypropylcellulose) (HPC), higher = larger tumour): 110 % of control
T/C (endpoint: median tumor weight (est.), dose: 50.0 mg/kg/injection, schedule: Q07DX002 (ip), vehicle: Klucel (hydroxypropylcellulose) (HPC), higher = larger tumour): 100 % of control
T/C (endpoint: median tumor weight (est.), dose: 100.0 mg/kg/injection, schedule: Q07DX002 (ip), vehicle: Klucel (hydroxypropylcellulose) (HPC), higher = larger tumour): 87 % of control
T/C (endpoint: median tumor weight (est.), dose: 200.0 mg/kg/injection, schedule: Q07DX002 (ip), vehicle: Klucel (hydroxypropylcellulose) (HPC), higher = larger tumour): 77 % of control
T/C [8]: 88 % of control

O=C(O)CCCc1ccc(N(CCCl)CCCl)cc1
T/C (endpoint: median tumor weight (est.), dose: 7.5 mg/kg/injection, schedule: Q07DX003 (ip), vehicle: saline with Tween-80, higher = larger tumour): 103 % of control
T/C (endpoint: median tumor weight (est.), dose: 15.0 mg/kg/injection, schedule: Q07DX002 (ip), vehicle: Klucel (hydroxypropylcellulose) (HPC), higher = larger tumour): 62 % of control and 72 % of control and 82 % of control
T/C (endpoint: median tumor weight (est.), dose: 15.0 mg/kg/injection, schedule: Q07DX003 (ip), vehicle: saline with Tween-80, higher = larger tumour): 37 % of control
T/C (endpoint: median tumor weight (est.), dose: 30.0 mg/kg/injection, schedule: Q07DX003 (ip), vehicle: saline with Tween-80, higher = larger tumour): 62 % of control
T/C (endpoint: median tumor weight (est.), dose: 60.0 mg/kg/injection, schedule: Q07DX002 (ip), vehicle: Klucel (hydroxypropylcellulose) (HPC), higher = larger tumour): 69 % of control

C=CCOCC1CO1 (stereo unspecified)
T/C [2]: 66 % of control
T/C [6]: 85 % of control
T/C (endpoint: median tumor weight (est.), dose: 200.0 mg/kg/injection, schedule: Q07DX002 (ip), vehicle: saline, higher = larger tumour): 122 % of control

COc1cccc2c1C(=O)c1c(O)c3c(c(O)c1C2=O)C[C@@](O)(C(C)=O)C[C@@H]3OC1CC(N(C)C)C(O)C(C)O1 (stereo partly specified)
T/C (endpoint: median survival time, dose: 6.4 mg/kg/injection, schedule: Q07DX002 (iv), vehicle: saline, higher = longer survival): 96 % of control
T/C (endpoint: median survival time, dose: 10.0 mg/kg/injection, schedule: Q07DX002 (iv), vehicle: saline, higher = longer survival): 105 % of control
T/C (endpoint: median tumor weight (est.), dose: 2.25 mg/kg/injection, schedule: Q07DX002 (ip), vehicle: saline, higher = larger tumour): 75 % of control and 89 % of control

Nc1ncnc2c1nnn2C1OC(CO)C(O)C1O (stereo unspecified)
T/C [8]: 45 % of control

COCC(O)Cn1ccnc1[N+](=O)[O-] (stereo unspecified)
T/C (endpoint: median tumor weight (est.), dose: 12.5 mg/kg/injection, schedule: Q07DX003 (ip), vehicle: water, higher = larger tumour): 85 % of control
T/C (endpoint: median tumor weight (est.), dose: 25.0 mg/kg/injection, schedule: Q07DX003 (ip), vehicle: water, higher = larger tumour): 90 % of control
T/C (endpoint: median tumor weight (est.), dose: 50.0 mg/kg/injection, schedule: Q07DX003 (ip), vehicle: water, higher = larger tumour): 100 % of control
T/C (endpoint: median tumor weight (est.), dose: 100.0 mg/kg/injection, schedule: Q07DX003 (ip), vehicle: water, higher = larger tumour): 118 % of control
T/C (endpoint: median tumor weight (est.), dose: 200.0 mg/kg/injection, schedule: Q07DX003 (ip), vehicle: water, higher = larger tumour): 72 % of control
T/C (endpoint: median tumor weight (est.), dose: 400.0 mg/kg/injection, schedule: Q07DX003 (ip), vehicle: water, higher = larger tumour): 86 % of control

CC(=O)N(C)c1ccc(Nc2cc(C)[nH]c3ccc4ncnc4c23)cc1
T/C [2]: 118 % of control and 104 % of control
T/C [3]: 74 % of control and 80 % of control

CC(C)NCC(O)COc1cccc2ccccc12 (stereo unspecified)
T/C (endpoint: median tumor weight (est.), dose: 4.0 mg/kg/injection, schedule: Q07DX002 (ip), vehicle: Klucel (hydroxypropylcellulose) (HPC), higher = larger tumour): 122 % of control
T/C (endpoint: median tumor weight (est.), dose: 8.0 mg/kg/injection, schedule: Q07DX002 (ip), vehicle: Klucel (hydroxypropylcellulose) (HPC), higher = larger tumour): 100 % of control
T/C (endpoint: median tumor weight (est.), dose: 64.0 mg/kg/injection, schedule: Q07DX002 (ip), vehicle: Klucel (hydroxypropylcellulose) (HPC), higher = larger tumour): 88 % of control

COc1cc(Cl)ccc1C
T/C [1]: 99 % of control
T/C (endpoint: median tumor weight (est.), dose: 25.0 mg/kg/injection, schedule: Q07DX002 (ip), vehicle: saline with Tween-80, higher = larger tumour): 71 % of control
T/C [4]: 68 % of control
T/C [5]: 82 % of control
T/C [7]: 89 % of control
T/C (endpoint: median tumor weight (est.), dose: 400.0 mg/kg/injection, schedule: Q07DX002 (ip), vehicle: saline with Tween-80, higher = larger tumour): 89 % of control
